Data set [1] in a line: In vitro metabolism in rat liver microsomes. In kind it is in vitro ADME. An excerpt: In vitro metabolism of prostratin was investigated using mouse, rat, monkey, and human liver microsomes (Gentest). […] Attempts to identify the metabolite by LC/MS/MS were unsuccessful due to the low amounts present in the reaction mixtures (FIG. 1).
Data set [2] has as its system rhesus macaque monkeys. In words: Preliminary pharmacokinetic study in monkeys (mortality). The data set is classed as in vivo. The note with it: intravenous bolus 0.8 mg/kg; respiratory failure shortly after injection. The method, then: During a preliminary pharmacokinetic study, rhesus macaque monkeys were administered an intravenous bolus of prostratin at 0.4 mg/kg and 0.8 mg/kg. The monkey in 0.8 mg/kg died due a respiratory failure shortly after injection. Plasma samples from these monkeys were sent to NIH and plasma concentration of prostratin was measure along with other samples at NIH using the LC/MS/MS assay.

Data set [3] is described as follows: Stability of prostratin in mouse plasma. The data set is classed as in vitro ADME. The note with it: 24 hr incubation at 37° C. The method, then:
Prostratin is stable in plasma and buffer as well as in the stability formulation (see below) developed for in vivo studies in mice. Stability tests for prostratin in mouse and monkey plasma were done using two concentration (1 and 10 mg/ml) and two temperatures (Room Temperature (RT) and 37° C.). The only loss of drug occurred in mouse plasma after 24 hr incubation at 37° C. This represented only 14% decrease in parent drug peak area over this time frame. Prostratin is stable in PBS (phosphate buffer saline) at pH 2 and pH 7.

For data set [4], the system named is rats. Briefly: DART work in rats (IV injection). In kind it is in vivo. The note with it: for maximum tolerated i.v. dose: iv bolus. The method, then:
Extrapolation was performed from the DART work that was all done in rats as an IV injection (not infusion). Infusions and injections are by definition 100% bio-available meaning it all gets in.
The oral doses were estimated based on a maximum tolerated i.v. dose of 0.4 mg/kg from the DART work in rats, but an oral bio-availability of only 29%. Thus, the maximum tolerated i.v. dose was multiplied by three (i.e., 0.4 mg/kg times 3 equals 1.2 mg/kg as the equivalent oral dose). The purpose of the two lower oral doses (both 0.8 mg/kg, therefore a total of 1.6 mg/kg) and the infusion (0.8 mg/kg over three hours) was to see if the maximum tolerated dose could be exceeded by dividing up the oral into two times 75% the max tolerated dose or as an infusion over 3 hours.

The nature of data set [5]: Stability in the formulation vehicle for in vivo studies. In kind it is physicochemical. The note with it: 10% DMSO: 10% Cremophor: 80%:0.9% Saline; even at 37° C. for at least 2 hr. Here is the method:
Drug was dissolved in vehicle (10% DMSO: 10% Cremophor: 80%:0.9% Saline) and then incubated at four different temperatures (37° C., RT, 4° C., and −20° C.) for up to 2 hr. Prostratin is stable in this formulation even at 37° C. for at least 2 hr.

For data set [6], the system named is resting CD4+ T cells derived from HIV positive patients. In words: Induction of HIV-1 expression in resting CD4+ T cells from HIV positive patients on HAART (p24, co-culture). In kind it is cell-based, human. Here is the method: The ability of prostratin to induce HIV-1 expression in cultures of highly purified resting CD4+ T cells derived from six HIV positive patients on HAART therapy with undetectable plasma viral load (<50 copies/ml) and CD4 cell counts above 350 cells/mm^3 was evaluated. PBMCs were separated using Ficol Hypaque gradient and resting CD4+ T cells were purified using commercially available CD4+ T cell isolation kit (Miltenyi Biotec) Immediately after purification, resting CD4+ T cells were treated for 3 days with two antiretrovirals to which the patient had not previously been exposed. Antiretrovirals were used at concentrations 10 times the 50% inhibitory concentration for wild-type HIV-1 to ensure elimination of any actively replicating virus. Three days after in vitro incubation with antiretrovirals, cells were washed and incubated for 5 h, 24 h, or 48 h with prostratin (50-500 ng/ml), in the absence or presence of 1 mM valproic acid (sodium salt, SIGMA), 10 μg/ml PHA (SIGMA), 50 U IL-2/ml (AIDS depository of reagents, NIH), or in the absence of drugs. At the end of each incubation period, cells were co-cultured with CD8-depleted PBMCs from healthy donors. P24 was measured at days 0, 4, 7, 14, 21, 28, 35 and 42 days.

In data set [7] the test system is Salmonella typhimurium tester strains TA98, TA100, TA1535, and TA1537. Briefly: Salmonella/mammalian-microsome reverse mutation assay with confirmatory assay. In kind it is cell-based. The note with it: 100 to 5000 μg per plate; presence or absence of S9. An excerpt:
The objective of this study was to evaluate the test article, prostratin, for the ability to induce reverse mutations either in the presence or absence of mammalian microsomal enzymes at 1) the histidine locus in the genome of several strains of Salmonella typhimurium and at 2) the tryptophan locus of Escherichia coli tester strain WP2uvrA.
The doses tested in the mutagenicity assay were selected based on the results of a dose range finding study using tester strains TA100 and WP2uvrA and ten doses of test article ranging from 6.67 to 5000 μg per plate, one plate per dose, both in the presence and absence of S9 mix.
The tester strains used in the mutagenicity assay were Salmonella typhimurium tester strains TA98, TA100, TA1535, and TA1537 and Escherichia coli tester strain WP2uvrA. The assay was conducted with five doses of test article in both the presence and absence of S9 mix along with concurrent vehicle and positive controls using three plates per dose. The doses tested were 100, 333, 1000, 3330, and 5000 μg per plate in both the presence and absence of S9 mix. The results of the initial mutagenicity assay were confirmed in an independent experiment.

In data set [8] the test system is latently infected U1 cells. In words: HIV expression (reverse transcriptase activity in supernatant) in latently infected U1 cells. The data set is classed as cell-based. The method, then: The effect of prostratin on virus replication was assessed in latently infected ACH-2 and U1 cells by measuring the accumulation of reverse transcriptase activity in the supernatant of stimulated cells (Gustafson et al., 1992, J Med Chem 35(11): 1978-86).
Briefly, 4×10^4 cells in 100 μl fresh medium were mixed with another 100 μl of medium with or without prostratin or PMA in a 96-well microtiter plate. Plates were incubated for 24-72 h at 37° C. Following incubation, supernatants were harvested, centrifuged (to remove any residual cells) and tested for reverse transcriptase activity as previously described (Gustafson et al., 1992, J Med Chem 35(11): 1978-86).
In these experiments, two concentrations of cells were tested (40,000 and 100,000 cells/well). It is noteworthy that the basal levels of reverse transcriptase activities were much higher in ACH-2 cells than in U1 cells.

`CC(=O)O[C@@]12C[C@@H](C)[C@@]3(O)[C@@H](C=C(CO)C[C@]4(O)C(=O)C(C)=C[C@@H]34)[C@@H]1C2(C)C` [prostratin, 12-deoxyphorbol 13-acetate]: the “metabolism (time-dependent loss of parent compound)” value in data set [1] is “substantially less”. In addition, the mortality result in data set [2] was “died”. Moreover, in data set [3], the “decrease in parent drug peak area” value was determined as 14%. For the same compound, in data set [4], the oral bio-availability worked out at 29% and the “maximum tolerated i.v. dose” value is recorded as 0.4 mg/kg. For the same compound, in data set [4] (listed as Prostratin), the “maximum tolerated i.v. dose” value was “Dosages in Male Rats (MTD via iv bolus dose: 0.4 mg/kg)”. Further, the stability in formulation result in data set [5] is recorded as “stable”. The “HIV-1 expression in resting T cells” value in data set [6] (50 ng/ml) is “HIV-1 activation events, although with lower frequency”. Besides, the “time of co-culture with CD8-depleted PBMC after which robust HIV replication was observed” value in data set [6] (24 h with 150 ng/ml) is on record as 2-4 weeks. For the same compound, the “HIV-1 expression in resting T cells” value in data set [6] (ex-vivo treatment for 24 h with 150 ng/ml) is given as “efficient activation of the latent reservoir”. Moreover, the “mean number of revertants per plate” value in data set [7] is given as “did not cause a positive increase”. In data set [8], the “exposure time needed to observe acceptable reverse transcriptase activity” value is on record as “at least 48 h” and the “lowest dose to get a reliable increase in reverse transcriptase activity” value is 50 ng/mL. Besides, the “short incubation (pulsed stimulation) time leading to detectable reverse transcriptase activity” value in data set [8] (none after 1 h and 4 h) was determined as 6 h.

Source of the values: US20110224297A1, “Methods of administering prostratin and structural analogs thereof” (priority 2008, published 2011).
